Experimental data from patent publication US11447533B2, “Antimicrobial and anticancer peptides and conjugates and compositions, methods, articles and kits relating thereto” (George Mason Research Foundation, Inc., priority 2018, dated 2022).

Columns and labels:
[1] = system: E. coli ML35p outer membrane; assay: NPN assay, outer membrane perturbation; format: cell-based, Escherichia coli; conditions: DPBS; 25 μM peptide; 25 μM PMB = 100%
Method: (§1) Interactions with Bacterial Membranes. Interaction of the peptides with bacterial membranes in different phosphate buffers were evaluated using E. coli ML35p, constructed in our laboratory. At first, competent cells of E. coli ML35 were produced by conventional competent cell preparation method, then transformed with pBR322 plasmid. Transformed colonies were selected after growing on Luria-agar containing 50 μg/mL ampicillin. A single transformed colony was grown in presence of ampicillin first in Luria broth and then in MHBII and stored as 20% glycerol stock at −80° C. This frozen stock, on the day of the experiment, was thawed and grown in MHBII containing ampicillin up to OD600 nm=0.8-0.9, washed with PBS and then suspended in the respective buffer up to the required OD600 nm for use.
NPN Assay. The outer membrane perturbation of bacteria was evaluated by incubating E. coli ML35p with peptides in presence of NPN. 100 mM NPN in acetone was supplemented proportionately to a bacterial suspension of OD600 nm˜0.5 to achieve a final concentration of 20 μM of NPN and the mixture was equilibrated for 30 mins. Then, 90 μL of the bacterial suspension containing 20 μM NPN was added with 10 μL of 250 μM peptide (10×) solution in water and scanned for fluorescence intensity (excitation=350 nm, emission=420 nm). The % Perturbation was calculated by considering PMB to be causing 100% Perturbation and water (without peptide) as 0% Perturbation. Each peptide was tested in triplicate in each of the three phosphate buffers used.
When peptides partition from the bulk aqueous environment to the cellular membranes, they may cause small defects in the membrane organization, a signature of adsorption of the peptides into the membranes. Such small defects are called membrane perturbations and can be evaluated by utilizing molecular probes. One such molecular probe is NPN, which is a hydrophobic molecule and is usually repelled to enter the hydrophobic interiors of the membrane by the polar headgroups of membrane-lipids. However, when small defects and gaps are caused during the adsorption of the peptides into the membranes, NPN can enter through those defects and in the hydrophobic environment of the membrane interior the molecule fluoresces, which can be measured for quantification of the extent of membrane-perturbation and peptide adsorption in the cellular membrane.

[2] = system: E. coli ML35p outer membrane; assay: Outer membrane disruption (β-lactamase leakage, nitrocefin); format: cell-based, Escherichia coli; conditions: DPBS
Method: as §1
Membrane Disruptions. The outer and the inner membrane disruptions by the peptides were evaluated by incubating bacterial suspension with peptides and then measuring the activity of enzymes leaked out of the cells. 100 μL of 10× concentration of peptide in water was incubated with 900 μL bacterial suspension (OD600 nm˜0.1) in respective buffer for 3 hours at room temperature with gentle rotation. Then the cells and debris were separated by centrifugation (10000 r.p.m. for 30 mins) and the supernatant was collected and tested for activity of enzymes that had leaked out of the bacterial cells. HCMAB was used as a positive control to cause 100% membrane disruption and water as a negative causing 0% disruption.
The outer membrane disruption was tested by using the activity of beta-lactamase present in the periplasmic space of E. coli ML35p. Peptides when disrupt the outer membrane enough to cause beta-lactamase to come out, the degree of disruption can be measured by the virtue of the kinetics of the enzyme and using a chromogenic cephalosporin substrate called nitrocefin. β-lactamase mediated hydrolyzed product of nitrocefin has an absorbance αmax=486 nm. Supernatant collected from the incubation of peptide with bacteria was added with nitrocefin solution in DPBS and incubated at 35° C. and continuous absorbance readings. The slope of the linear section of the absorbance curve (absorbance vs time), was used as a measure of membrane disruption and the % Disruption was calculated as: Equation 7: […]
Some of the ATRA1-variants were further tested for their ability to disrupt outer and inner membranes to form pores or disruptions sufficiently large so as to allow enzymes to leak out of their cellular compartments (cytoplasm or periplasmic space). For this purpose, two reporter molecules were used with one being the substrate of a cytoplasmic enzyme and the other was a substrate for an enzyme residing in the periplasmic space. One of the reporters, nitrocefin was the substrate for β-lactamase, which is present in the bacterial periplasm, whereas the other molecule, ONPG, was the substrate for β-galactosidase, which resides in the cytoplasm of E. coli ML35p strain. […] Similarly, β-galactosidase activity in the supernatants is evidence of inner membrane disruption and possible pore formation. When the aforesaid supernatants were tested for nitrocefin and ONPG hydrolysis, the corresponding absorbance increased with time (data not shown) indicating β-lactamase and β-galactosidase activity, respectively, and thus disruption of both the inner and outer membranes. The slopes of the increase in absorbance as a function of time provides the rate of enzyme activity. The enzyme activities in supernatants collected after incubation of bacteria with the quaternary ammonium surfactant, hexadecyltrimethylammonium bromide (HCMAB) was used as an internal reference for 100% membrane disruption. Enzyme activity for supernatants collected for cells incubated in the absence of peptide provided a reference for 0% membrane disruption. Bee venom peptide melittin was used as a positive control. […]

[3] = Endotoxin binding: competitive displacement of BODIPY TR-Cadaverine from LPS; design: species or system Escherichia coli; conditions: 5 μM peptide, 10 μM BC, 10 μg/mL LPS, low ionic-strength 10 mM Na-PO4
Method: FIGS. 2A-2B are graphs showing endotoxin binding. The figures depict the competitive displacement of BC from LPS/LTA by the peptides. 5 μM of each peptide was incubated with 10 μM BC and 10 μg/mL LPS from E. coli (0111:B4) or LTA from S. aureus. Fluorescence intensity was measured at excitation=580 nm and emission=620 nm. 10 μM BC without endotoxin was used as 100% displacement while 10 μM BC with 10 μg/mL LPS/LTA without any peptide as 0% displacement and the % displacement of BC by each peptide was calculated accordingly. […] had been used as a positive control. The horizontal dotted line coincides with the % displacement of BC by ATRA1 on the y-axis.
FIGS. 6A-6B are graphs showing endotoxin (LPS (FIG. 6A) and LTA (FIG. 6B)) binding. Competitive displacement of BC from LPS/LTA. In each case, 5 μM peptide was incubated with 10 μM BC and 10 μg/mL LPS from E. coli (0111:B4) or LTA from S. aureus. Fluorescence intensity was measured using excitation=580 nm and emission=620 nm. As a positive control 10 μM BC without endotoxin was used as a reference for 100% displacement while 10 μM BC with 10 μg/mL LPS/LTA without any peptide as a negative control and a reference for 0% displacement. These controls were used to calculate % BC displacement for each peptide.
Endotoxin Binding. The binding of endotoxin (LPS/LTA) was evaluated using a fluorogenic conjugateBODIPY TR-Cadaverine (BC). BC binds endotoxin loses its fluorescence. The peptide competitively displaces BC from endotoxin and the fluorescence is reestablished. Competitive inhibition of endotoxin-BC binding was utilized due to presence of peptides already in complexion with endotoxin. 25 μL of 20 μM of peptides in 10 mM Na—PO4 buffer were incubated with 25 μL of LPS (40 μg/mL) or LTA (40 μg/mL) for 15 min and then added with 50 μL of BC (20 uM). Peptides bind to LPS or LTA and competitively prevents BC bind to the endotoxin. BC loses its fluorescence on binding to endotoxin. The fluorescence intensity of the unbound BC was measured at excitation=580 nm and emission=620 nm.
BC contains two functional moieties: BODIPY (boron-dipyrromethene) and cadaverine connected via a carboxamide. BODIPY is the fluorophore of BC and fluoresces in the free state in solution but loses fluorescence when bound to LPS/LTA. The competitive displacement of BC from LPS/LTA by AMPs and thus regeneration of the fluorescence has frequently been used to estimate the binding strength of AMPs with LPS/LTA. In the present studies, 5 μM of each peptide was used to displace BC from LPS/LTA. […] Such observation contradicts the initial assumption that substitution of Lys with arginine would result in increased efficiency of LPS binding. However, with sequential substitutions of Lys with arginine, starting with ATRA1-AR, peptide variants show increased LPS binding with each additional arginine substitution. In terms of LPS binding: ATRA1-AR<ATRA1-AR2<ATRA1-AR3. In ATRA1-R3, the lysine residues at 9th, 5th and 1st positions of ATRA1 were substituted with arginine. In ATRA1-R6 all of the lysine residues were replaced with arginine.

E. coli ATCC 25922 = assay: Antimicrobial efficacy (resazurin virtual colony count); format: cell-based, Escherichia coli; conditions: pH 7.4
Method: Antimicrobial Studies. The phosphate buffers used for antimicrobial assays were supplemented with non-nitrogenous energy source, 0.1% (w/v) glucose. To conduct antimicrobial assays, bacterial strains were first suspended in respective buffers. E. coli (ATCC 25922) and B. cereus (ATCC 11778) were grown in MHB II up to OD600 nm˜1 and stored as frozen stock in 20% glycerol at −80° C. Occasionally they were thawed and enumerated by serial dilution and spreading on MHB II agar plates. The concentrations of the frozen stocks of E. coli and B. cereus strains were 1.0-1.1*10^8 CFU/mL with OD600 nm˜0.8. In case of other bacterial strains, they were grown on the days of experiment up to OD600 nm˜1-1.5 and then adjusted to OD600 nm˜0.8. The growth media of the drug-resistant bacterial strains were supplemented with few of the respective antibiotics against which they are resistant. 200 μL of the 0.8 OD600 nm culture were added to 10 mL of the respective buffer to obtain a suspension which was used to incubate with equal volumes of peptide solution in the same buffer.
Antimicrobial assays in different phosphate buffers and serum were conducted by adapting, with necessary modifications a fast high-throughput method based on Virtual Colony Count technique and later modified by incorporating the use of resazurin. At first serial dilution of a microbial strain in respective buffer was poured in the wells of 96 well polypropylene microplate and was then added with same volume of 2× MHB II supplemented with 80 μg/mL resazurin and incubated at 35° C. in a Gemini EM Microplate Reader (Molecular Devices) overnight with intermittent shaking. As the microbe grows it reduces non-fluorescent resazurin to fluorescent resorufin and the fluorescent intensity of each well were measured (excitation=570 nm, emission=590 nm) each 5 min for 15 hours. The time (t, min) to reach a certain fluorescence (RFU=20000 with respect to the starting fluorescence) was correlated with the initial bacterial concentration (in CFU/mL) in the particular well to obtain a calibration plot of the form: Log([Bacteria],CFU/mL)=b+m*t Equation 4: […]
To obtain antimicrobial efficacy of the peptides, 50 μL of serially diluted peptide in a buffer was incubated with 50 μL microbial suspension in the same buffer for 3 hours in black polypropylene 96 well plate. After incubation the wells were added with 100 μL of 2× MHB II supplemented with 80 μg/mL resazurin and then incubated with continuous fluorescence reading for overnight time period as described earlier. The surviving microbial population (CFU/mL) in each well were calculated by first finding the time to reach a fluorescence of RFU=20000 and the correlation (4) for the specific microbial strain and buffer. % Survival represents the proportion of viable cells in peptide treated cells relative to cells treated with the respective buffer alone. Equation 5: […]
Finally, the antimicrobial effectiveness of each peptide against the particular microbial strain in the specific buffer was determined by plotting % microbial survival as a function of the log of the concentration of the peptide and fitting the resulting data to a variable-slope sigmoidal regression model (equation 6). In this equation, log(EC50) represents the log of the concentration of the peptide required to kill half of the microbial population, where Smin and Smax correspond to the minimal and maximal microbial survival values (respectively), and H, Hill slope, is the parameter defining the steepness of the transition slopes of sigmoidal survival curves. % Microbial survival=Smin+(Smax−Smin)/(1+10^log(EC^50^)-log[peptide]*H) Equation 6: […]
The antimicrobial efficacies of the peptides were first tested against the model Gram-negative bacteria, E. coli ATCC 25922, in different phosphate buffers having varied ionic strengths and compositions. The phosphate buffers that were used included 10 mM sodium phosphate (calculated ionic strength˜25 mM), PBS and DPBS. […]

[4] = PBS (high / physiologically relevant ionic strength)

Sequence | membrane perturbation with respect to PMB [1] | time to reach maximum signal for nitrocefin hydrolysis [2] | LPS binding (BC displacement), in words [3] | antimicrobial efficacy, in words (E. coli ATCC 25922; DPBS (with Ca++ and Mg++)) | antimicrobial efficacy, in words (E. coli ATCC 25922; [4])
KRWKKFFKKWK (SEQ ID NO: 12) [ATRA1-W2] | higher OM perturbation than ATRA1 | – | – | – | –
KRWKKWFKKWK (SEQ ID NO: 13) [ATRA1-W3] | higher OM perturbation than ATRA1 | approximately 30 mins | – | – | –
KRAKRFFKRLK (SEQ ID NO: 7) [ATRA1-AR2] | – | – | ATRA1-AR<ATRA1-AR2<ATRA1-AR3 | lose activity in DPBS | more potent than ATRA1-A
RRAKRFFKRLK (SEQ ID NO: 8) [ATRA1-AR3] | – | – | ATRA1-AR<ATRA1-AR2<ATRA1-AR3 | lose activity in DPBS | greater effectiveness than both ATRA1-A and ATRA1
